Laboratory results published in patent publication US20080226719A1, “Combination of Rosiglitazone and Donepezil for Improvement of Cognitive Function” (priority 2005, published 2008).

Experiments:
Type in all cases: in vivo, human
[1] = tested on: Alzheimer's patients; test: Disability Assessment for Dementia (DAD), Example 2 study; settings: week 24
Protocol: (§1) Patients received either placebo or one of three dosage levels of extended release rosiglitazone provided once daily (2 mg, 4 mg and 8 mg tablets as described in Example 1). Patients were examined using the cognitive Alzheimer's Disease Assessment Scale (ADAS-cog; for further information see Rosen W G et al. Am. J. Psychiatry. 1984 141:1356-1364) and the Clinician's Interview-Based Impression of Change with caregiver information (CIBIC+; for further information see Knopman D S et al. Neurology 1994 44: 2315-2321); and secondary assessments were performed using: the Disability Assessment for Dementia (DAD, for further information see Gelinas L et al. Am J Occup Ther 1999 53: 471-81) and the Neuropsychiatric Inventory test (NPI, for further information see Cummings et al (1994) Neurology 44, 2308-2314) at the start of the study (baseline) and during the course of the study (after 8, 16 and 24 weeks of treatment).
Similar results were identified using the Disability Assessment for Dementia (DAD) test (Gelinas L et al. Am J Occup Ther 1999 53: 471-81). A prospectively defined test for interaction between APOE4 carriage status and DAD scores at week 24 was significant (P=0.006).

[2] = tested on: Alzheimer's patients; test: ADAS-cog in patients with mild to moderate AD, 24 week placebo-controlled study (Example 2); settings: for ADAS-cog Treatment Difference (95% confidence limits) Rosi − Placebo / ADAS-cog model adjusted change from baseline, LSMean (SE): ITT population, LOCF; for ADAS-cog Treatment Difference (95% confidence limits) Rosi − Placebo / ADAS-cog model adjusted change from baseline, LSMean (SE) / ADAS-cog Treatment Difference (90% confidence limits) Rosi − Placebo / ADAS-cog model-adjusted change from baseline, LSMean (SE): 24 weeks; for ADAS-cog Treatment Difference (90% confidence limits) Rosi − Placebo / ADAS-cog model-adjusted change from baseline, LSMean (SE): PGx ITT population
Protocol: (§2) Analysis for the full intent to treat (ITT) population was performed on 511 subjects who were randomly allocated into one of four specific treatment regimes. Genotyping analysis was performed on 63% (323/511) of the ITT population.
(§3) Patient population included Caucasian males and females between 50-85 years of age who had been diagnosed with mild to moderate AD, were not receiving any medications which could adversely prejudice the study (e.g. PPAR-gamma agonists or conventional AD medicaments) or had any other potentially prejudicial ailments (e.g. diabetes or major psychiatric disorders).
as §1
(§4) APOE genotype was determined using the TaqMan PCR-based method of McLeod et al 2001 infra.
(§5) All statistics reflect last observed assessment carried forward (LOCF) measurements.
It should be noted that in the case of ADAS-cog higher scores indicate reduced cognitive function.

[3] = tested on: Alzheimer's patients; test: Neuropsychiatric Inventory (NPI), Example 2 study; settings: week 24
Protocol: as §1
Similar results were identified using the Neuropsychiatric Inventory (NPI) test (Cummings et al (1994) Neurology 44, 2308-2314). A prospectively defined test for interaction between APOE4 carriage status and NPI scores at week 24 was significant ([…]).

[4] = tested on: Alzheimer's patients; test: CIBIC+ in patients with mild to moderate AD, 24 week placebo-controlled study (Example 2); settings: 24 weeks; for CIBIC+ LSMean (SE) / CIBIC+ Treatment Difference (95% confidence limits) Rosi − Placebo: ITT population, LOCF
Protocol: as §2, §3, §1, §4, §5
Higher CIBIC+ scores indicate a greater level of decline with scores below 4 denoting clinical improvement and scores above 4 denoting clinical decline.

[5] = Table 13, PGx ITT population, 0 APOE4 copies, 2 mg
[6] = Table 13, PGx ITT population, 0 APOE4 copies, 4 mg
[7] = Table 13, PGx ITT population, 0 APOE4 copies, 8 mg
[8] = Table 13, PGx ITT population, 1 APOE4 copy, 2 mg
[9] = Table 13, PGx ITT population, 1 APOE4 copy, 4 mg
[10] = Table 13, PGx ITT population, 1 APOE4 copy, 8 mg
[11] = Table 13, PGx ITT population, 2 APOE4 copies, 2 mg
[12] = Table 13, PGx ITT population, 2 APOE4 copies, 4 mg
[13] = Table 13, PGx ITT population, 2 APOE4 copies, 8 mg

## CN(CCOc1ccc(CC2SC(=O)NC2=O)cc1)c1ccccn1 (stereo not drawn) [Rosi, 5-[4-[2-(N-methyl-N-(2-pyridyl)amino)ethoxy]benzyl]thiazolidine-2,4-dione]
[1]; APOE4+ subjects
  DAD scores, pattern of results: demonstrated no improvement
[1]; APOE4− subjects
  DAD scores, pattern of results: demonstrated improvement on DAD
[2]; APOE4+ individuals, 2 mg, 4 mg or 8 mg, after 8 weeks
  ADAS-cog change from baseline, cognitive function (FIG. 2): slight improvement
[2]; APOE4+ individuals, 2 mg, after 16 weeks
  ADAS-cog change from baseline, cognitive function (FIG. 2): a greater decline than the placebo
[2]; APOE4+ individuals, 4 mg and 8 mg, after 16 weeks, versus placebo
  ADAS-cog change from baseline, cognitive function (FIG. 2): the same or better clinical status
[2]; APOE4+ individuals, all three treatment arms, after 24 weeks
  ADAS-cog change from baseline, cognitive function (FIG. 2): finish with a clinical decline
[2]; APOE4 heterozygotes, higher doses (4, 8 mg), course of the study
  ADAS-cog change from baseline (FIG. 3): remained close to the baseline
[2]; APOE4 homozygotes, all treated
  ADAS-cog change from baseline (FIG. 3): experienced a clinical decline
[2]; APOE4− individuals, 2 mg, 4 mg or 8 mg, all time points (8, 16 and 24 weeks)
  ADAS-cog change from baseline, cognitive function (FIG. 2): marked improvement
[2]; 2 mg
  ADAS-cog Treatment Difference (95% confidence limits) Rosi − Placebo: 0.25 (−1.19, 1.68)
[2]; 2 mg once daily extended release
  ADAS-cog model adjusted change from baseline, LSMean (SE): −0.2 (0.54)
[2]; 4 mg
  ADAS-cog Treatment Difference (95% confidence limits) Rosi − Placebo: −0.46 (−1.90, 0.97)
[2]; 4 mg once daily extended release
  ADAS-cog model adjusted change from baseline, LSMean (SE): −0.9 (0.54)
[2]; 8 mg
  ADAS-cog Treatment Difference (95% confidence limits) Rosi − Placebo: −0.27 (−1.70, 1.16)
[2]; 8 mg once daily extended release
  ADAS-cog model adjusted change from baseline, LSMean (SE): −0.7 (0.53)
[2]; 0 APOE4 copies, 2 mg
  ADAS-cog Treatment Difference (90% confidence limits) Rosi − Placebo: −2.39 (−4.43, −0.36)
  ADAS-cog model-adjusted change from baseline, LSMean (SE): −1.38 (0.90)
[2]; 0 APOE4 copies, 4 mg
  ADAS-cog Treatment Difference (90% confidence limits) Rosi − Placebo: −2.26 (−4.32, −0.20)
  ADAS-cog model-adjusted change from baseline, LSMean (SE): −1.25 (0.90)
[2]; 0 APOE4 copies, 8 mg
  ADAS-cog Treatment Difference (90% confidence limits) Rosi − Placebo: −2.86 (−4.98, −0.74)
  ADAS-cog model-adjusted change from baseline, LSMean (SE): −1.85 (0.94)
[2]; 0 APOE4 copies, 8 mg, listed as rosiglitazone
  ADAS-cog Treatment Difference (90% confidence limits) Rosi − Placebo: −2.86
[2]; 1 APOE4 copy, 2 mg
  ADAS-cog Treatment Difference (90% confidence limits) Rosi − Placebo: 2.59 (0.10, 5.08)
  ADAS-cog model-adjusted change from baseline, LSMean (SE): 2.02 (1.10)
[2]; 1 APOE4 copy, 4 mg
  ADAS-cog Treatment Difference (90% confidence limits) Rosi − Placebo: 0.36 (−2.18, 2.90)
  ADAS-cog model-adjusted change from baseline, LSMean (SE): −0.21 (1.15)
[2]; 1 APOE4 copy, 8 mg
  ADAS-cog Treatment Difference (90% confidence limits) Rosi − Placebo: 0.23 (−2.42, 2.87)
  ADAS-cog model-adjusted change from baseline, LSMean (SE): −0.34 (1.25)
[2]; 2 APOE4 copies, 2 mg
  ADAS-cog Treatment Difference (90% confidence limits) Rosi − Placebo: 10.26 (3.64, 16.87)
  ADAS-cog model-adjusted change from baseline, LSMean (SE): 5.67 (2.98)
[2]; 2 APOE4 copies, 4 mg
  ADAS-cog Treatment Difference (90% confidence limits) Rosi − Placebo: 7.75 (1.79, 13.71)
  ADAS-cog model-adjusted change from baseline, LSMean (SE): 3.16 (2.44)
[2]; 2 APOE4 copies, 8 mg
  ADAS-cog Treatment Difference (90% confidence limits) Rosi − Placebo: 6.50 (1.28, 11.71)
  ADAS-cog model-adjusted change from baseline, LSMean (SE): 1.91 (1.73)
[3]; APOE4+ subjects
  NPI scores, pattern of results: demonstrated no improvement
[3]; APOE4− subjects
  NPI scores, pattern of results: demonstrated improvement on NPI
[4]; 2 mg
  CIBIC+ LSMean (SE): 3.8 (0.10)
  CIBIC+ Treatment Difference (95% confidence limits) Rosi − Placebo: −0.16 (−0.44, 0.11)
[4]; 4 mg
  CIBIC+ LSMean (SE): 3.8 (0.10)
  CIBIC+ Treatment Difference (95% confidence limits) Rosi − Placebo: −0.16 (−0.43, 0.11)
[4]; 8 mg
  CIBIC+ LSMean (SE): 3.8 (0.10)
  CIBIC+ Treatment Difference (95% confidence limits) Rosi − Placebo: −0.22 (−0.49, 0.05)
[4]; [5]
  CIBIC+ Treatment Difference (90% confidence limits) Rosi − Placebo: −0.49 (−0.89, −0.08)
  model adjusted CIBIC+ LSMean (SE): 3.47 (0.18)
[4]; [6]
  CIBIC+ Treatment Difference (90% confidence limits) Rosi − Placebo: −0.19 (−0.60, 0.22)
  model adjusted CIBIC+ LSMean (SE): 3.76 (0.18)
[4]; [7]
  CIBIC+ Treatment Difference (90% confidence limits) Rosi − Placebo: −0.19 (−0.61, 0.22)
  model adjusted CIBIC+ LSMean (SE): 3.76 (0.18)
[4]; [8]
  CIBIC+ Treatment Difference (90% confidence limits) Rosi − Placebo: 0.59 (0.08, 1.11)
  model adjusted CIBIC+ LSMean (SE): 4.47 (0.23)
[4]; [9]
  CIBIC+ Treatment Difference (90% confidence limits) Rosi − Placebo: 0.23 (−0.28, 0.74)
  model adjusted CIBIC+ LSMean (SE): 4.11 (0.23)
[4]; [10]
  CIBIC+ Treatment Difference (90% confidence limits) Rosi − Placebo: −0.20 (−0.73, 0.34)
  model adjusted CIBIC+ LSMean (SE): 3.68 (0.25)
[4]; [11]
  CIBIC+ Treatment Difference (90% confidence limits) Rosi − Placebo: −0.92 (−2.20, 0.37)
  model adjusted CIBIC+ LSMean (SE): 3.42 (0.58)
[4]; [12]
  CIBIC+ Treatment Difference (90% confidence limits) Rosi − Placebo: −0.39 (−1.55, 0.77)
  model adjusted CIBIC+ LSMean (SE): 3.95 (0.47)
[4]; [13]
  CIBIC+ Treatment Difference (90% confidence limits) Rosi − Placebo: −0.07 (−1.08, 0.95)
  model adjusted CIBIC+ LSMean (SE): 4.27 (0.34)
[4]; Table 13A updated analysis with additional subjects, 0 APOE4 copies, 2 mg
  model adjusted CIBIC+ LSMean (SE): 3.51 (0.17)
[4]; Table 13A updated analysis with additional subjects, 0 APOE4 copies, 4 mg
  model adjusted CIBIC+ LSMean (SE): 3.75 (0.17)
[4]; Table 13A updated analysis with additional subjects, 0 APOE4 copies, 8 mg
  model adjusted CIBIC+ LSMean (SE): 3.75 (0.18)
[4]; Table 13A updated analysis with additional subjects, 1 APOE4 copy, 2 mg
  model adjusted CIBIC+ LSMean (SE): 4.32 (0.21)
[4]; Table 13A updated analysis with additional subjects, 1 APOE4 copy, 4 mg
  model adjusted CIBIC+ LSMean (SE): 3.97 (0.22)
[4]; Table 13A updated analysis with additional subjects, 1 APOE4 copy, 8 mg
  model adjusted CIBIC+ LSMean (SE): 3.70 (0.24)
[4]; Table 13A updated analysis with additional subjects, 2 APOE4 copies, 2 mg
  model adjusted CIBIC+ LSMean (SE): 3.46 (0.57)
[4]; Table 13A updated analysis with additional subjects, 2 APOE4 copies, 4 mg
  model adjusted CIBIC+ LSMean (SE): 3.93 (0.47)
[4]; Table 13A updated analysis with additional subjects, 2 APOE4 copies, 8 mg
  model adjusted CIBIC+ LSMean (SE): 4.29 (0.33)
[4]; Table 13A updated analysis, 0 APOE4 copies, 2 mg
  CIBIC+ Treatment Difference (90% confidence limits) Rosi − Placebo: −0.46 (−0.85, −0.07)
[4]; Table 13A updated analysis, 0 APOE4 copies, 4 mg
  CIBIC+ Treatment Difference (90% confidence limits) Rosi − Placebo: −0.22 (−0.62, 0.18)
[4]; Table 13A updated analysis, 0 APOE4 copies, 8 mg
  CIBIC+ Treatment Difference (90% confidence limits) Rosi − Placebo: −0.22 (−0.62, 0.19)
[4]; Table 13A updated analysis, 1 APOE4 copy, 2 mg
  CIBIC+ Treatment Difference (90% confidence limits) Rosi − Placebo: 0.39 (−0.09, 0.87)
[4]; Table 13A updated analysis, 1 APOE4 copy, 4 mg
  CIBIC+ Treatment Difference (90% confidence limits) Rosi − Placebo: 0.04 (−0.44, 0.53)
[4]; Table 13A updated analysis, 1 APOE4 copy, 8 mg
  CIBIC+ Treatment Difference (90% confidence limits) Rosi − Placebo: −0.22 (−0.74, 0.29)
[4]; Table 13A updated analysis, 2 APOE4 copies, 2 mg
  CIBIC+ Treatment Difference (90% confidence limits) Rosi − Placebo: −0.91 (−2.19, 0.36)
[4]; Table 13A updated analysis, 2 APOE4 copies, 4 mg
  CIBIC+ Treatment Difference (90% confidence limits) Rosi − Placebo: −0.45 (−1.59, 0.70)
[4]; Table 13A updated analysis, 2 APOE4 copies, 8 mg
  CIBIC+ Treatment Difference (90% confidence limits) Rosi − Placebo: −0.09 (−1.09, 0.92)
